Measured values as given in PubChem BioAssay (NCI).
Several values for one entry are separate records, joined by “and”; a condition that tells them apart may be missing. Identical values can stand only once.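 Grown in 96-well plates, cells were treated for 48 hours with each compound at five concentrations. Insufficient inhibition: endpoint recorded as highest concentration tested. GI50 is the concentration that inhibits growth by half. TGI: concentration producing complete growth inhibition.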

Assays:
Test in all cases: NCI tumour cell line growth inhibition, 48 h
[1] = test system: SK-MEL-5 melanoma
[2] = test system: SF-539 CNS
[3] = test system: HOP-62 NSCLC
[4] = test system: HCT-116 colon
[5] = test system: SR leukemia
[6] = test system: SK-MEL-28 melanoma
[7] = test system: OVCAR-4 ovarian
[8] = test system: UACC-62 melanoma
[9] = test system: T-47D breast
[10] = test system: NCI/ADR-RES ovarian

For `Clc1ccc2c(c1)[nH]c1c2nc2ccccn21`, the GI50 [1] was 39.9 µM and 16.4 µM, the TGI [1] was > 100 µM and 30.2 µM and the TGI [2] was 50.3 µM and 30.6 µM. The GI50 [3] was 78 µM and 24.6 µM, the TGI [3] was > 100 µM and 55.6 µM and the TGI [4] was 48.3 µM and 46.6 µM. The TGI [5] was over 100 µM and the TGI [6] was 62.4 µM and 31.3 µM.
With `N.N.N.N.O=C([O-])CCl.O=C([O-])CCl.[Co+3].[O-][Cl+3]([O-])([O-])[O-]` the GI50 [1] was over 100 µM, the TGI [1] was over 100 µM and the GI50 [2] was over 100 µM. It also gave a TGI [2] of over 100 µM, a GI50 [3] of over 100 µM and a TGI [3] of over 100 µM. For the same molecule, the GI50 [4] was over 100 µM, the TGI [4] was over 100 µM and the GI50 [6] was over 100 µM. It also gave a TGI [6] of over 100 µM, a GI50 [7] of over 100 µM and a TGI [7] of over 100 µM. The GI50 [8] was over 100 µM and the TGI [8] was over 100 µM.
Molecule `CCC12CCCN(Cc3ccccc3)C1c1c(n(C)c3ccccc13)CC2` (centres undefined) has a TGI [1] of 184 µM, a TGI [2] of over 253 µM and a TGI [3] of over 253 µM. The TGI [4] was over 253 µM, the TGI [5] was over 253 µM and the TGI [6] was over 253 µM. For the same molecule, the TGI [8] was over 253 µM.
In the case of `OC(CC1SCCCS1)c1ccccc1` (centres undefined), the TGI [1] is reported as over 100 µM, the TGI [2] is reported as over 100 µM and the TGI [3] is reported as over 100 µM. The TGI [4] was over 100 µM, the TGI [7] was over 100 µM and the TGI [8] was over 100 µM.
`CC(C)N(C(=O)C12C3C4C1C1C4(C#N)C3C12C#N)C(C)C` (centres undefined) gave a TGI [1] of over 100 µM, a TGI [2] of over 100 µM and a TGI [3] of over 100 µM. The TGI [6] was over 100 µM, the TGI [7] was over 100 µM and the TGI [8] was over 100 µM.
Work on `COc1ccc2occ(CCC(=O)O)c2c1` yielded a TGI [1] of over 100 µM, a TGI [2] of over 100 µM and a TGI [3] of over 100 µM. It also gave a TGI [4] of over 100 µM, a TGI [6] of over 100 µM and a TGI [7] of over 100 µM. For the same molecule, the TGI [8] was over 100 µM.
With `Cc1cn2c(=O)c3ncn(C4OC(CO)C(O)C4O)c3n(C)c2n1` (centres undefined) the TGI [1] was over 100 µM, the TGI [2] was over 100 µM and the TGI [4] was over 100 µM. For the same molecule, the TGI [6] was over 100 µM, the TGI [7] was over 100 µM and the TGI [8] was over 100 µM.
With `O=C1CCC2(c3ccc(Cl)cc3)Nc3ncccc3N12` (centres undefined) the TGI [1] was over 100 µM, the TGI [2] was over 100 µM and the TGI [3] was over 100 µM. The TGI [6] was over 100 µM, the TGI [7] was over 100 µM and the TGI [8] was over 100 µM.
`CCCCCCCCCCCCCC(=O)OCC(C[As](=O)(O)O)OC(=O)CCCCCCCCCCCCC` (centres undefined) showed a TGI [1] of over 100 µM, a TGI [2] of over 100 µM and a TGI [3] of over 100 µM. It also gave a TGI [4] of over 100 µM, a TGI [5] of over 100 µM and a TGI [6] of over 100 µM. For the same molecule, the TGI [7] was over 100 µM and the TGI [8] was over 100 µM.
In the case of `COc1cc(C(=O)N2CCN(C=O)C2=S)cc(OC)c1OC`, the GI50 [9] is reported as 20.7 µM, the TGI [9] is reported as 90.6 µM and the GI50 [10] is reported as 36.1 µM. The TGI [10] was over 100 µM, the GI50 [2] was 21.3 µM and the TGI [2] was 43.2 µM. The GI50 [3] was 20 µM, the TGI [3] was 61.1 µM and the GI50 [4] was 35.6 µM. For the same molecule, the TGI [4] was over 100 µM, the GI50 [6] was 29.5 µM and the TGI [6] was over 100 µM. It also gave a GI50 [7] of 24.1 µM, a TGI [7] of 58.9 µM and a GI50 [8] of 15.8 µM. It also gave a TGI [8] of 30.4 µM.
In the case of `CC(C)(C)NNC(=O)CCn1[nH]c(=O)c(Cl)c(Cl)c1=O`, the TGI [2] is reported as over 100 µM, the TGI [3] is reported as over 100 µM and the TGI [6] is reported as over 100 µM. For the same molecule, the TGI [7] was over 100 µM and the TGI [8] was over 100 µM.
With `CC(C)CCC1CC2C(=O)N(c3ccccc3)C(=O)C2c2[nH]c3ccccc3c21` (centres undefined) the TGI [1] was 13 µM, the TGI [2] was 10.8 µM and the TGI [5] was 23.9 µM. It also gave a TGI [6] of 20 µM, a TGI [7] of 20.7 µM and a TGI [8] of 20.9 µM.
`C#CCOc1cccc(-c2ncc3cc(NC(=O)CCl)ccc3n2)c1` showed a GI50 [1] of 1.33 µM, a TGI [1] of 2.62 µM and a GI50 [10] of 3.07 µM. It also gave a TGI [10] of over 100 µM, a GI50 [2] of 1.51 µM and a TGI [2] of 2.92 µM. The GI50 [3] was 2.02 µM, the TGI [3] was 3.81 µM and the GI50 [6] was 1.98 µM. It also gave a TGI [6] of 3.66 µM, a GI50 [8] of 1.52 µM and a TGI [8] of 3.36 µM.
Molecule `CC(C)C(CCl)NC(=O)c1cccc(C(=O)N[C@H](CCl)C(C)C)n1` (stereo in doubt) has a TGI [1] of over 100 µM, a TGI [2] of over 100 µM and a TGI [3] of over 100 µM. For the same molecule, the TGI [4] was over 100 µM, the TGI [5] was over 100 µM and the TGI [6] was over 100 µM. It also gave a TGI [7] of over 100 µM.
`CC12C/C(=C\c3ccccc3)C(=O)C3C1CCCC32` gave a TGI [1] of over 100 µM, a TGI [2] of over 100 µM and a TGI [3] of over 100 µM. For the same molecule, the TGI [4] was over 100 µM, the TGI [5] was over 100 µM and the TGI [6] was over 100 µM. It also gave a TGI [7] of over 100 µM and a TGI [8] of over 100 µM.
`Cc1cc(Nc2ccc(NC(=O)c3ccc(Nc4ccnc5ccccc45)cc3)cc2)nc(N)n1` was tested, and the GI50 [1] was 5.23 µM, the TGI [1] was 49.9 µM and the GI50 [10] was over 100 µM. The TGI [10] was over 100 µM, the GI50 [8] was 2.33 µM and the TGI [8] was 5.84 µM.
Work on `Nc1nc(Cl)cc(NCCCCCCCCNc2cc(Cl)nc(N)n2)n1` yielded a TGI [1] of 13 µM, a TGI [2] of over 100 µM and a TGI [3] of over 100 µM. For the same molecule, the TGI [4] was over 100 µM, the TGI [5] was 96.8 µM and the TGI [6] was over 100 µM. For the same molecule, the TGI [7] was over 100 µM and the TGI [8] was 95.3 µM.
With `COC(=O)C1c2cc3c(cc2C(OC2OC(C)C(OC)C(C)(OC)C2OC)CC1(C)O)C(=O)c1c(O)cc2c(c1C3=O)OC1OC2(C)C(O)C([N+](C)(C)[O-])C1O` (centres undefined) the TGI [1] was 0.352 µM, the TGI [9] was 0.847 µM and the TGI [10] was over 64.3 µM. The TGI [3] was over 100 µM, the TGI [4] was over 100 µM and the TGI [7] was over 100 µM. It also gave a TGI [8] of 0.311 µM.
`CCOC(=O)c1cnc2c(ccc3[nH]n(C)nc32)c1=O` gave a TGI [1] of over 100 µM, a TGI [3] of over 100 µM and a TGI [4] of 61.4 µM. For the same molecule, the TGI [5] was over 100 µM, the TGI [6] was over 100 µM and the TGI [8] was over 100 µM.
